In article PMC8480782, “Efficient Dimerization Disruption of Leishmania infantum Trypanothione Reductase by Triazole-phenyl-thiazoles” (Journal of Medicinal Chemistry, 2021):
Where two headings read alike, the source gives them in different places. Non-standard residues stand in square brackets, D forms with d. Residues, ends and D or L forms follow the SMILES beside them. Nle = CCCC[C@H](N)C(=O)O

Key:
LiTryR dimer = molecular target: T1, LiTryR dimer (Leishmania infantum, UniProt A4HSF7); assay: biochemical; details: 400 nM LiTryR, 16 h at 37 °C; read-out: IC50^dim, LiTryR monomer displacement (dimer quantitation ELISA)
T1 construct: made in house; host or cells: E. coli BL21 (DE3) Rossetta (co-transformed with both plasmids)
Description: The stability of the LiTryR dimeric form in the presence of 1,2,3-triazole-phenyl-thiazole-based compounds was evaluated using the novel enzyme-linked immunosorbent assay (ELISA) developed in our laboratory.[25] […] Next, the different solutions were centrifuged at 18 000g for 15 min at room temperature. The supernatants (200 μL/well) were added to the α-FLAG-coated plates (Sigma-Aldrich, St. Louis, MO) and incubated for 30 min at 37 °C with agitation in a humid atmosphere. The plates were washed five times with TTBS buffer (2 mM Tris, pH 7.6, 138 mM NaCl, and 0.1% Tween-20) and incubated with diluted monoclonal α-HIS horseradish peroxidase (HRP)-conjugated antibody (200 μL, 1:50 000, Abcam, Cambridge, U.K.) in fatty acid- and essentially globulin-free bovine serum albumin (BSA) (5%) prepared in TTBS buffer for 1 h at room temperature. The plates were washed five times, and o-phenylenediamine dihydrochloride (OPD) substrate prepared according to the manufacturer’s instructions was added. The enzymatic reaction was stopped after 5 min with H2SO4 (100 μL, […]), and the absorbances were measured at 490 nm in an EnSpire Multimode Plate Reader (PerkinElmer, Waltham, MA). All of the assays were conducted in triplicate in at least three independent experiments. Data were analyzed using a nonlinear regression model with GraFit 6 software (Erithacus, Horley, Surrey, U.K.).

LiTryR = molecular target: T2, LiTryR (Leishmania infantum, UniProt A4HSF7); assay: biochemical; type: biochemical; details: LiTryR; 1 μM TS2; maximum assayed 75 μM; read-out: IC50^act, TryR oxidoreductase activity
T2 construct: HIS (N); made in house; host or cells: E. coli BL21 (DE3) Rossetta
Description: A concentration of 1 μM TS2 was used for this initial screening. This low substrate concentration is sufficient for comparison of compound inhibitory activity in the oxidoreductase assay.
Recombinant L. infantum TryR (LiTryR) HIS-tagged and HIS-FLAG-tagged versions were used for all LiTryR oxidoreductase activity and dimer quantitation assays. These LiTryR versions were purified from Escherichia coli as previously described.[25] Briefly, pRSETA-HIS-LiTryR construct alone or in combination with the pET24a-FLAG-LiTryR construct was transformed into BL21 (DE3) Rossetta E. coli strain. An overnight E. coli culture grown at 37 °C in Luria–Bertani (LB) medium with the appropriate antibiotics and vigorous shaking was diluted (1:100) in the same medium and allowed to grow in the same conditions until the OD600 was 0.5. Then, LiTryR expression was induced by addition of 1 mM isopropyl-β-D-1-thiogalactopyranoside (IPTG) for 16 h at 26 °C. The cells were centrifuged for 5 min at 9000g and 4 °C and the wet pellet resuspended in lysis buffer (50 mM Tris, pH 7, 300 mM NaCl, 25 mM imidazole, protease inhibitor cocktail, and 1 mg/mL lysozyme). […] The supernatant was sonicated again as previously described for 10 min and loaded on a HisTrap column (GE Healthcare, Chicago, IL) for 16 h at 4 °C using a P-1 peristaltic pump (GE Healthcare, Chicago, IL). Once loaded, the HisTrap column was connected to an ÄKTA purifier UPC 10 (GE Healthcare, Chicago, IL) and washed using a 5–10% gradient between buffer A (50 mM Tris, pH 7 and 300 mM NaCl) and B (50 mM Tris, pH 7, 300 mM NaCl, and 500 mM imidazole). LiTryR was eluted using a 40% gradient between buffers A and B. Fractions containing recombinant LiTryR were pooled and loaded into a HiPrep 26/10 Desalting column (GE Healthcare, Chicago, IL) previously equilibrated with buffer A. Finally, LiTryR was concentrated to 2 mg/mL using an Amicon Ultra-15 50K (Merck Millipore, Burlington, MA) and an equal volume of glycerol was added before storing at −20 °C.
TryR oxidoreductase activity was determined spectrophotometrically using a modified version of the DTNB-coupled assay described by Hamilton et al.[52] Briefly, reactions were carried out at 26 °C in 250 μL of N-(2-hydroxyethyl)piperazine-N′-ethanesulfonic acid (HEPES) buffer (pH 7.5, 40 mM) containing ethylenediaminetetraacetic acid (EDTA) (1 mM), NADP^+ (30 μM), DTNB (25 μM), TS2 (1 μM), NADPH (150 μM), glycerol (0.02%), DMSO (1.75%), and recombinant TryR (7 nM). […] Reactions were started by addition of a mixture of NADPH and TS2.
TryR oxidoreductase activity was monitored at 26 °C by an increase in absorbance at 412 nm in an EnSpire Multimode Plate Reader (PerkinElmer, Waltham, MA). […] (TNB) concentration was obtained by multiplying the absorbance values by 100 (50 μM TNB generates 0.5 arbitrary units of absorbance at 412 nm). In this DTNB-coupled assay, one molecule of T(SH)2 reduces one molecule of DTNB, producing two TNB molecules. All of the assays were conducted in at least three independent experiments. Data were analyzed using a nonlinear regression model with GraFit 6 software (Erithacus, Horley, Surrey, U.K.).

[1] = test system: L. infantum promastigotes; assay: Leishmanicidal activity on promastigotes (PI exclusion, flow cytometry); type: cell-based, Leishmania infantum; details: for SIp (ratio of EC50 against human cells to EC50 against promastigotes): HepG2 / promastigotes; for EC50: Leishmania infantum
Description: (§1) L. infantum promastigotes (MCAN/ES/89/IPZ229/1/89) were grown in Roswell Park Memorial Institute (RPMI)-1640 medium (Sigma-Aldrich, St. Louis, MO) supplemented with 10% heat-inactivated fetal calf serum (FCS), antibiotics, and 25 mM HEPES (pH 7.2) at 26 °C. L. infantum axenic amastigotes (MCAN/ES/89/IPZ229/1/89) were grown in M199 medium (Invitrogen, Leiden, The Netherlands) supplemented with 10% heat-inactivated FCS, 1 g/L β-alanine, 100 mg/L L-asparagine, 200 mg/L sucrose, 50 mg/L sodium pyruvate, 320 mg/L malic acid, 40 mg/L fumaric acid, 70 mg/L succinic acid, 200 mg/L α-ketoglutaric acid, 300 mg/L citric acid, 1.1 g/L sodium bicarbonate, 5 g/L morpholineethanesulfonic acid (MES), 0.4 mg/L hemin, and 10 mg/L gentamicine, pH 5.4, at 37 °C.
(§2) Drug treatment of L. infantum promastigotes was performed during the logarithmic growth phase at a concentration of 2 × 10^6 parasites/mL at 26 °C for 24 h. […] EC50 was evaluated by flow cytometry by the propidium iodide (PI) exclusion method. After selection of the parasite population based on their forward scatter (FSC) and side scatter (SSC) values, live and dead parasite cells were identified by their permeability to PI. All of the assays were conducted in triplicate in at least three independent experiments. Data were analyzed using a nonlinear regression model with GraFit 6 software (Erithacus, Horley, Surrey, U.K.).

[2] = test system: L. infantum axenic amastigotes; assay: Leishmanicidal activity on axenic amastigotes (PI exclusion, flow cytometry); type: cell-based, Leishmania infantum; details: for SIa (ratio of EC50 against human cells to EC50 against amastigotes): HepG2 / axenic amastigotes; for EC50: Leishmania infantum, axenic amastigotes, 24 h at 37 °C, read-out: EC50 amastigotes
Description: as §1
Axenization was performed by diluting 0.5 mL of a 7-day stationary phase culture of L. infantum promastigotes (2–3 × 10^7 parasites/mL) in 4.5 mL of amastigotes medium and incubating the culture at 37 °C for 2 or 3 days. L. infantum axenic amastigotes apparition was followed by phase-contrast microscopy using an Eclipse Ti inverted microscope (Nikon, Tokyo, Japan).
as §2

HepG2 cells = assay: Cellular toxicity, crystal violet assay; type: cell-based; details: Homo sapiens, HepG2; 24 h, crystal violet method; read-out: EC50 HepG2
Description: Liver hepatocellular carcinoma HepG2 cells were grown in Dulbecco’s modified Eagle’s medium (DMEM) (Sigma-Aldrich, St. Louis, MO) with 10% heat-inactivated FCS, antibiotics, and 10 mM HEPES.
Drug treatment of liver hepatocellular carcinoma HepG2 cells was performed at a concentration of 10^5 cells/mL at 37 °C and 5% CO2 for 24 h. EC50 was evaluated by the crystal violet assay. Briefly, cells were washed with phosphate-buffered saline (PBS) and stained with 200 μL of crystal violet solution (0.2% crystal violet, 2% ethanol) for 10 min at room temperature. Next, the plates were washed twice with tap water and allowed to dry. The stained cells were solubilized with 400 μL of 1% sodium dodecyl sulfate (SDS), and the color intensity was quantified at 570 nm using an EnSpire Multimode Plate Reader (PerkinElmer, Waltham, MA). All of the assays were conducted in triplicate in at least three independent experiments. Data were analyzed using a nonlinear regression model with GraFit 6 software (Erithacus, Horley, Surrey, U.K.).

[3] = 24 h at 26 °C, read-out: EC50 promastigotes

T2 sequence (A4HSF7 1-491): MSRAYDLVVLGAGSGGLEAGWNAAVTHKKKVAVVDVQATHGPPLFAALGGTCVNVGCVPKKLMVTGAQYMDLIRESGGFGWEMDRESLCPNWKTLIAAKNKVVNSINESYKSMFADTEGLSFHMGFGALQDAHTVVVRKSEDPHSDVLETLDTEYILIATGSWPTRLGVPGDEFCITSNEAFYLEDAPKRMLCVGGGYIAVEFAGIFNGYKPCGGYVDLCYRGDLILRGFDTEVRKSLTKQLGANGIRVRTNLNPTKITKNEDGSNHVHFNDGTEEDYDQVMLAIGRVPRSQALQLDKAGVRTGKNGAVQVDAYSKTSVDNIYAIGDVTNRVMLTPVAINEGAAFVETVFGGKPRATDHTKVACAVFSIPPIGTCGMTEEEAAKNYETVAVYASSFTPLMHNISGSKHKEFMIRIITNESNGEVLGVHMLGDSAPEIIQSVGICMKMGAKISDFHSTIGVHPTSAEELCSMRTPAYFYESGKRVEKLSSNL
T1 sequence (A4HSF7 1-491): as above

SMILES	IC50 (LiTryR dimer) [µM]	IC50 (LiTryR) [µM]	SIp (ratio of EC50 against human cells to EC50 against promastigotes) [1]	EC50 [1, 3] [µM]	SIa (ratio of EC50 against human cells to EC50 against amastigotes) [2]	EC50 [2] [µM]	EC50 (HepG2 cells) [µM]	EC50 ([1]; promastigotes or amastigotes (either form), read-out: EC50 against Leishmania promastigotes or amastigotes) [µM]
O=C1NCCN1CCOc1cc(-n2cc(CCCCO)nn2)ccc1-c1nc(CCc2ccccc2)cs1 [12d]	> 75	> 75	–	–	–	–	–	–
CCCCc1cn(-c2ccc(-c3nc(CCc4ccccc4)cs3)c(OCCN3CCNC3=O)c2)nn1 [12e]	> 75	> 75	–	–	–	–	–	–
CCCCc1cn(-c2ccc(-c3nc(CCc4ccc(-c5ccccc5)cc4)cs3)c(OCCN3CCNC3=O)c2)nn1 [12f]	> 75	> 75	–	–	–	–	–	–
NCCCc1cn(-c2ccc(-c3nc(CCc4ccccc4)cs3)c(OCCN3CCNC3=O)c2)nn1.O=C(O)C(F)(F)F [12h]	> 75	20.8 ± 2.3	2.0	12.7 ± 0.3	< 1	31.6 ± 5.8	25.7 ± 2.2	–
COc1cc(-n2cc(CCCCN)nn2)ccc1-c1nc(CCc2ccccc2)cs1.O=C(O)C(F)(F)F [12j]	> 75	20.1 ± 2.5	–	8.5 ± 0.1	1.7	7.1 ± 0.7	12.4 ± 0.7	–
COc1cc(-n2cc(CCCCN)nn2)ccc1-c1nc(CCc2ccc(-c3ccccc3)cc2)cs1.O=C(O)C(F)(F)F [12k]	16.1 ± 0.7	26.8 ± 5.7	–	–	ND/1.9	4 ± 0.2	7.4 ± 0.6	–
CC(C)Oc1csc(-c2ccc(-n3cc(CCCCN)nn3)cc2OCCN2CCNC2=O)n1 [12l]	> 75	54.5 ± 4.4	–	–	–	–	–	–
CC(C)(C)Cc1csc(-c2ccc(-n3cc(CCCCN)nn3)cc2OCCN2CCNC2=O)n1.O=C(O)C(F)(F)F [12m]	> 75	24.1 ± 1.4	1.0	42.6 ± 3.9	1.8	25.2 ± 0.5	44.9 ± 1.3	–
NCCCCc1cn(-c2ccc(-c3nc(Cc4ccccc4)cs3)c(OCCN3CCNC3=O)c2)nn1 [12o]	–	–	–	> 75	–	> 75	67.9 ± 1.5	–
NCCCCc1cn(-c2ccc(-c3nc(-c4ccc(-c5ccccc5)cc4)c(-c4ccccc4)s3)c(OCCN3CCNC3=O)c2)nn1.O=C(O)C(F)(F)F [19b, 1-(2-(5-(4-(4-Ammoniobutyl)-1H-1,2,3-triazol-1-yl)-2-(4-([1,1′-biphenyl]-4-yl)-5-phenylthiazol-2-yl)phenoxy)ethyl)imidazolidin-2-one 2,2,2-Trifluoroacetate]	11.3 ± 0.2	18.4 ± 3.9	–	–	ND/1.8	9.4 ± 0.5	17.3 ± 0.1	< 10
CCCC[C@H](NC(=O)[C@H](CCCCN)NC(=O)[C@H](CCCC)NC(=O)[C@H](CO)NC(=O)[C@@H](NC(=O)CNC(=O)[C@@H](NC(=O)[C@H](CO)NC(=O)[C@H](CCC(N)=O)NC(=O)[C@@H](NC(=O)[C@@H](NC(=O)[C@H](CCCCN)NC(=O)[C@@H]1CCCN1C(=O)[C@H](CCCNC(=N)N)NC(=O)[C@H](CCCNC(=N)N)NC(=O)[C@H](CCCNC(=N)N)NC(=O)[C@H](CCCNC(=N)N)NC(=O)[C@H](CCCNC(=N)N)NC(=O)[C@H](CCCNC(=N)N)NC(=O)[C@H](CCCNC(=N)N)NC(=O)[C@H](CCCNC(=N)N)NC(=O)[C@H](CCCNC(=N)N)NC(C)=O)[C@@H](C)CC)[C@@H](C)CC)C(C)C)[C@@H](C)CC)C(N)=O [R9-peptide 1, reference compound] (Ac-RRRRRRRRRPKIIQSVGIS[Nle]K[Nle]-NH2; N-terminus and C-terminus assumed)	–	–	19.9	–	18.1	–	–	–
O=C1NCCN1CCOc1cc(Br)ccc1-c1nc(CCc2ccccc2)cs1 [compound 13]	> 75	> 75	–	–	–	–	–	–
N#Cc1ccc(-n2cc(CCCCN)nn2)cc1OCCN1CCNC1=O [compound 14]	> 75	> 75	–	–	–	–	–	–
